Experiment [1] has as its system Klebsiella pneumoniae. Description: Antibacterial activity against Klebsiella pneumoniae ATCC 10032 assessed as inhibition zone diameter after 24 hrs by agar diffusion method. In kind it is functional.
The subject of experiment [2] is Pseudomonas aeruginosa. Description: Antibacterial activity against Pseudomonas aeruginosa ATCC 9027 assessed as inhibition zone diameter after 24 hrs by agar diffusion method. The format is functional.
For experiment [3], the system named is Staphylococcus aureus. As to the kind of experiment: Antibacterial activity against Staphylococcus aureus ATCC 6538P assessed as inhibition zone diameter after 24 hrs by agar diffusion method. The format is functional.
Experiment [4] deals with Staphylococcus aureus. Description: Antibacterial activity against Staphylococcus aureus ATCC 6538P assessed as inhibition zone diameter at 15 ug/disk after 24 hrs by agar diffusion method. To be noted: read-out: IZ. The format is functional.
Experiment [5] has as its system Pseudomonas aeruginosa. Description: Antibacterial activity against Pseudomonas aeruginosa ATCC 9027 assessed as inhibition zone diameter at 15 ug/disk after 24 hrs by agar diffusion method. The format is functional, organism-based.
In experiment [6] the test system is Klebsiella pneumoniae. As to the kind of experiment: Antibacterial activity against Klebsiella pneumoniae ATCC 10032 assessed as inhibition zone diameter at 15 ug/disk after 24 hrs by agar diffusion method. In kind it is functional, organism-based.
The subject of experiment [7] is Radical scavenging activity. As to the kind of experiment: Antioxidant activity assessed as DPPH radical scavenging activity at 6 ug. In kind it is functional.
Experiment [8] concerns Staphylococcus aureus. As to the kind of experiment: Antibacterial activity against Staphylococcus aureus ATCC 6538P assessed as inhibition zone diameter at 30 ug/disk after 24 hrs by agar diffusion method. To be noted: read-out: IZ. In kind it is functional.
The subject of experiment [9] is Klebsiella pneumoniae. Description: Antibacterial activity against Klebsiella pneumoniae ATCC 10032 assessed as inhibition zone diameter at 30 ug/disk after 24 hrs by agar diffusion method. The format is functional. The conditions noted are these: ATCC 10032, 24 h, read-out: IZ.
For experiment [10], the system named is Pseudomonas aeruginosa. Description: Antibacterial activity against Pseudomonas aeruginosa ATCC 9027 assessed as inhibition zone diameter at 30 ug/disk after 24 hrs by agar diffusion method. The conditions noted are these: ATCC 9027, 24 h, read-out: IZ. In kind it is functional.
The subject of experiment [11] is Klebsiella pneumoniae. As to the kind of experiment: microbe, parasite or virus in culture. The conditions noted are these: ATCC 10032, 24 h, read-out: IZ.
Description: Antibacterial activity against Klebsiella pneumoniae ATCC 10032 assessed as inhibition zone diameter at 5 ug/disk after 24 hrs by agar diffusion method
Experiment [12] has as its system Pseudomonas aeruginosa. As to the kind of experiment: microbe, parasite or virus in culture. To be noted: ATCC 9027, 24 h, read-out: IZ.
Description: Antibacterial activity against Pseudomonas aeruginosa ATCC 9027 assessed as inhibition zone diameter at 5 ug/disk after 24 hrs by agar diffusion method
Experiment [13] deals with Staphylococcus aureus. As to the kind of experiment: Antibacterial activity against Staphylococcus aureus ATCC 6538P assessed as inhibition zone diameter at 5 ug/disk after 24 hrs by agar diffusion method. The format is functional, organism-based.

Active and inactive are the calls of the source. The rule behind the calls is not given here.

Turning to `CCOC(=O)NCCCCNC(=O)C1=NO[C@]2(C=C(Br)C(OC)=C(Br)[C@@H]2O)C1` [SUBEREAMOLLINE A], the result in the experiment with Klebsiella pneumoniae [1] and in the experiment on Pseudomonas aeruginosa [2] was inactive. The “inhibition zone (IZ)” value in the experiment on Staphylococcus aureus [3] is recorded as 3 mm.

For the compound `COC1=C(Br)[C@H](O)[C@@]2(C=C1Br)CC(C(=O)NCCCCNC(=O)C1=NO[C@]3(C=C(Br)C(OC)=C(Br)[C@@H]3O)C1)=NO2` [AEROTHIONIN], the “inhibition zone (IZ)” value was found to be 3 mm in the experiment on Klebsiella pneumoniae [1] and 5 mm in the experiment on Staphylococcus aureus [3]. Also, the result in the experiment on Pseudomonas aeruginosa [2] was inactive.

Turning to `CC[C@H]1OC(=O)[C@H](C)[C@@H](O[C@H]2C[C@@](C)(OC)[C@@H](O)[C@H](C)O2)[C@H](C)[C@@H](O[C@@H]2O[C@H](C)C[C@H](N(C)C)[C@H]2O)[C@](C)(O)C[C@@H](C)C(=O)[C@H](C)[C@@H](O)[C@]1(C)O` [ERYTHROMYCIN], the zone of inhibition at 15 µg/disc with Staphylococcus aureus [4] was 8 mm. For the same compound, the outcome in the experiment on Pseudomonas aeruginosa [5] and in the experiment on Klebsiella pneumoniae [6] was inactive.

On to `COC1=C(Br)[C@@H]2OC(=O)C[C@]2(O)C=C1Br`, for which the outcome with Klebsiella pneumoniae [1] and with Pseudomonas aeruginosa [2] was inactive. Also, the “inhibition zone (IZ)” value with Staphylococcus aureus [3] is reported as 5 mm.

Take `COC(=O)Cc1cc(Br)c(O)c(Br)c1O` [SUBEREAPHENOL B]: in experiment [7], the result was Active. For the same compound, the outcome in the experiment with Klebsiella pneumoniae [1] and in the experiment with Pseudomonas aeruginosa [2] was inactive. In addition, the “inhibition zone (IZ)” value in the experiment on Staphylococcus aureus [3] is reported as 5 mm.

As for `COC1=C(Br)[C@H](O)[C@@]2(C=C1Br)CC(C(=O)NCCCOc1c(Br)cc(CCNC(=O)C3=NO[C@]4(C=C(Br)C(OC)=C(Br)[C@@H]4O)C3)cc1Br)=NO2`, the result in the experiment with Klebsiella pneumoniae [1], in the experiment on Pseudomonas aeruginosa [2] and in the experiment with Staphylococcus aureus [3] was inactive.

As to `CCOC(=O)Cc1cc(Br)c(O)c(Br)c1O`, the result in experiment [7] was Active.

Regarding `O=C(N[C@H](CO)[C@H](O)c1ccc([N+](=O)[O-])cc1)C(Cl)Cl` [CHLORAMPHENICOL], the zone of inhibition at 30 µg/disc in the experiment with Staphylococcus aureus [8] came to 9 mm; in the experiment on Klebsiella pneumoniae [9], 10 mm; in the experiment on Pseudomonas aeruginosa [10] it was 7 mm.

As to `COC1=C(Br)[C@H](O)[C@@]2(C=C1Br)CC(C(=O)NCCCCCNC(=O)C1=NO[C@]3(C=C(Br)C(OC)=C(Br)[C@@H]3O)C1)=NO2` [HOMOAEROTHIONIN], the outcome with Klebsiella pneumoniae [1] and with Pseudomonas aeruginosa [2] was inactive. Further, the “inhibition zone (IZ)” value in the experiment with Staphylococcus aureus [3] amounted to 3 mm.

On to `COC1=C(Br)[C@H](O)[C@](O)(CC#N)C=C1Br`, for which the “inhibition zone (IZ)” value in the experiment with Klebsiella pneumoniae [1] was 7 mm; with Pseudomonas aeruginosa [2], 11 mm; in the experiment with Staphylococcus aureus [3], 9 mm.

With `O=C(O)c1cn(C2CC2)c2cc(N3CCNCC3)c(F)cc2c1=O` [CIPROFLOXACIN], the zone of inhibition at 5 µg/disc with Klebsiella pneumoniae [11] was found to be 8 mm; in the experiment on Pseudomonas aeruginosa [12], 2 mm. For the same compound, the result in the experiment with Staphylococcus aureus [13] was inactive.

The values above are taken from ChEMBL document CHEMBL1156544, “Bioactive brominated metabolites from the red sea sponge Suberea mollis” (2008).
